Results as given in PubChem BioAssay AID330 (DTP/NCI, 2004).
“And” between values parts separate entries of the source, which are not always exact repeats. Identical values can stand only once. Toxic doses and inconclusive results are not listed.

Tested on: P388 leukemia ip, CD2F1 mice, survival T/C
Assay: NCI In Vivo Anticancer Drug Screen. Data for tumor model P388 Leukemia (intraperitoneal) in CD2F1 (CDF1) mice
Conditions: endpoint: median survival time, higher = longer survival
Procedure, shortened: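 Mice carrying the transplanted tumor received test compound or vehicle. Survival was recorded in each group, and the value is the treated-group measurement divided by that of the vehicle-treated control group.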

[1] = dose: 50.0 mg/kg/injection, schedule: Q01DX009 (ip), vehicle: saline with Tween-80
[2] = dose: 100.0 mg/kg/injection, schedule: Q01DX009 (ip), vehicle: saline with Tween-80
[3] = dose: 200.0 mg/kg/injection, schedule: Q01DX009 (ip), vehicle: saline with Tween-80
[4] = dose: 400.0 mg/kg/injection, schedule: Q01DX009 (ip), vehicle: saline with Tween-80
[5] = dose: 50.0 mg/kg/injection, schedule: Q01DX005 (ip), vehicle: saline with Tween-80
[6] = dose: 100.0 mg/kg/injection, schedule: Q01DX005 (ip), vehicle: saline with Tween-80
[7] = dose: 200.0 mg/kg/injection, schedule: Q01DX005 (ip), vehicle: saline with Tween-80
[8] = dose: 60.0 mg/kg/injection, schedule: Q01DX005 (ip), vehicle: saline with Tween-80
[9] = dose: 120.0 mg/kg/injection, schedule: Q01DX005 (ip), vehicle: saline with Tween-80

In the case of `CC1OP(=S)(S)OC1C` (configuration not stated), the T/C (dose: 50.0 mg/kg/injection, schedule: Q01DX005 (ip), vehicle: saline) is reported as 95 % of control and the T/C (dose: 100.0 mg/kg/injection, schedule: Q01DX005 (ip), vehicle: saline) is reported as 100 % of control.

In the case of `Cn1c(=O)n2n(c1=O)C1C3C4C5C3C13COCC53C42` (configuration not stated), the T/C (dose: 50.0 mg/kg/injection, schedule: Q01DX009 (ip), vehicle: Klucel (hydroxypropylcellulose) (HPC)) is reported as 97 % of control, the T/C (dose: 100.0 mg/kg/injection, schedule: Q01DX009 (ip), vehicle: Klucel (hydroxypropylcellulose) (HPC)) is reported as 97 % of control and the T/C (dose: 200.0 mg/kg/injection, schedule: Q01DX009 (ip), vehicle: Klucel (hydroxypropylcellulose) (HPC)) is reported as 100 % of control.

`CCOC(=O)CCC(NC(=O)c1ccc(N(C)CCC(C)=O)cc1)C(=O)OCC` (configuration not stated) was tested, and the T/C [1] was 111 % of control, the T/C [2] was 111 % of control and the T/C [3] was 102 % of control. The T/C [4] was 97 % of control.

For `COC(=O)CC(=O)c1ccc(OC(C)C)cc1`, the T/C [2] was 100 % of control, the T/C (dose: 100.0 mg/kg/injection, schedule: Q04DX003 (ip), vehicle: saline with Tween-80) was 100 % of control and the T/C [3] was 100 % of control. For the same compound, the T/C (dose: 200.0 mg/kg/injection, schedule: Q04DX003 (ip), vehicle: saline with Tween-80) was 95 % of control, the T/C [4] was 100 % of control and the T/C (dose: 400.0 mg/kg/injection, schedule: Q04DX003 (ip), vehicle: saline with Tween-80) was 100 % of control.

`COC(=O)C(CC(C)C)NC(=O)C(Cc1cnc[nH]1)NC(=O)C(CS)N(C(=O)OCc1ccccc1)C(=O)OCc1ccccc1` (configuration not stated) was tested, and the T/C [5] was 99 % of control, the T/C [6] was 98 % of control and the T/C [7] was 100 % of control.

`COc1cc(-c2coc3c4c(ccc3c2=O)OC(C)(C)C=C4)c(OC)c2c1OCO2` was tested, and the T/C (dose: 10.0 mg/kg/injection, schedule: Q01DX009 (ip), vehicle: other) was 111 % of control, the T/C (dose: 20.0 mg/kg/injection, schedule: Q01DX009 (ip), vehicle: other) was 102 % of control and the T/C (dose: 40.0 mg/kg/injection, schedule: Q01DX009 (ip), vehicle: other) was 123 % of control.

In the case of `C[N+]12CN3CN(CP(C3)C1)C2`, the T/C (dose: 6.25 mg/kg/injection, schedule: Q01DX009 (ip), vehicle: saline) is reported as 99 % of control, the T/C (dose: 12.5 mg/kg/injection, schedule: Q01DX009 (ip), vehicle: saline) is reported as 100 % of control and the T/C (dose: 25.0 mg/kg/injection, schedule: Q01DX009 (ip), vehicle: saline) is reported as 101 % of control.

With `CC1=C(CC/C(C)=C/CCC2=CCC(C3=CC(=O)OC3O)OC2O)C(C)(C)CCC1` (configuration not stated) the T/C (dose: 1.0 mg/kg/injection, schedule: Q01DX009 (ip), vehicle: Klucel (hydroxypropylcellulose) (HPC)) was 116 % of control, the T/C (dose: 2.0 mg/kg/injection, schedule: Q01DX009 (ip), vehicle: Klucel (hydroxypropylcellulose) (HPC)) was 111 % of control and the T/C (dose: 4.0 mg/kg/injection, schedule: Q01DX009 (ip), vehicle: Klucel (hydroxypropylcellulose) (HPC)) was 117 % of control. The T/C (dose: 8.0 mg/kg/injection, schedule: Q01DX009 (ip), vehicle: Klucel (hydroxypropylcellulose) (HPC)) was 100 % of control and the T/C (dose: 16.0 mg/kg/injection, schedule: Q01DX009 (ip), vehicle: Klucel (hydroxypropylcellulose) (HPC)) was 117 % of control.

In the case of `O=C1N[C@@H]([C@H]2CC[C@H](Cl)CN2)C(=O)N[C@H]1[C@H]1CC[C@H](Cl)CN1`, the T/C (dose: 0.25 mg/kg/injection, schedule: Q01DX005 (iv), vehicle: saline) is reported as 118 % of control, the T/C (dose: 0.39 mg/kg/injection, schedule: Q01DX009 (ip), vehicle: water) is reported as 158 % of control and 182 % of control and the T/C (dose: 0.5 mg/kg/injection, schedule: Q01DX005 (iv), vehicle: saline) is reported as 118 % of control. For the same compound, the T/C (dose: 0.78 mg/kg/injection, schedule: Q01DX009 (ip), vehicle: water) was 184 % of control and 214 % of control, the T/C (dose: 1.0 mg/kg/injection, schedule: Q01DX001 (ip), vehicle: saline) was 123 % of control and the T/C (dose: 1.0 mg/kg/injection, schedule: Q01DX005 (ip), vehicle: saline) was 181 % of control. For the same compound, the T/C (dose: 1.0 mg/kg/injection, schedule: Q01DX005 (iv), vehicle: saline) was 120 % of control, the T/C (dose: 1.56 mg/kg/injection, schedule: Q01DX009 (ip), vehicle: water) was 122 % of control and 223 % of control and the T/C (dose: 2.0 mg/kg/injection, schedule: Q01DX001 (ip), vehicle: saline) was 123 % of control. For the same compound, the T/C (dose: 2.0 mg/kg/injection, schedule: Q01DX005 (ip), vehicle: saline) was 227 % of control, the T/C (dose: 2.0 mg/kg/injection, schedule: Q01DX005 (iv), vehicle: saline) was 157 % of control and the T/C (dose: 2.0 mg/kg/injection, schedule: Q01DX005 (oral), vehicle: saline) was 180 % of control. For the same compound, the T/C (dose: 4.0 mg/kg/injection, schedule: Q01DX001 (ip), vehicle: saline) was 151 % of control, the T/C (dose: 4.0 mg/kg/injection, schedule: Q01DX005 (ip), vehicle: saline) was 100 % of control and the T/C (dose: 4.0 mg/kg/injection, schedule: Q01DX005 (iv), vehicle: saline) was 200 % of control. The T/C (dose: 4.4 mg/kg/injection, schedule: Q01DX001 (ip), vehicle: saline) was 172 % of control and 176 % of control and 177 % of control, the T/C (dose: 6.7 mg/kg/injection, schedule: Q01DX001 (ip), vehicle: saline) was 172 % of control and 190 % of control and 211 % of control and the T/C (dose: 10.0 mg/kg/injection, schedule: Q01DX001 (ip), vehicle: saline) was 216 % of control and 220 % of control and 250 % of control. The T/C (dose: 16.0 mg/kg/injection, schedule: Q01DX001 (ip), vehicle: saline) was 209 % of control.

For `[CH3][Ge]([Cl])([c]1ccccc1)[c]1cccc2ccccc12` (configuration not stated), the T/C (dose: 100.0 mg/kg/injection, schedule: Q04DX003 (ip), vehicle: saline) was 102 % of control, the T/C (dose: 200.0 mg/kg/injection, schedule: Q04DX003 (ip), vehicle: saline) was 97 % of control and the T/C (dose: 400.0 mg/kg/injection, schedule: Q04DX003 (ip), vehicle: saline) was 101 % of control.

`CC(Cc1ccccc1)NC(=O)C1CC2CCCCN2C1C` (configuration not stated) was tested, and the T/C [8] was 97 % of control and the T/C [9] was 95 % of control.

`Cc1onc(-c2c(F)cccc2Cl)c1C(=O)Oc1ccccc1` was tested, and the T/C (dose: 30.0 mg/kg/injection, schedule: Q01DX005 (ip), vehicle: saline with Tween-80) was 100 % of control, the T/C [8] was 100 % of control and the T/C [9] was 103 % of control. The T/C (dose: 240.0 mg/kg/injection, schedule: Q01DX005 (ip), vehicle: saline with Tween-80) was 99 % of control.

In the case of `COc1cccc2c1C(=O)c1c(O)c3c(c(O)c1C2=O)C[C@@](O)(C(C)=O)C[C@@H]3OC1CC(N2CCSCC2)C(O)C(C)O1` (some centres not stated), the T/C (dose: 0.39 mg/kg/injection, schedule: Q04DX003 (ip), vehicle: distilled water + Tween-80) is reported as 118 % of control, the T/C (dose: 0.78 mg/kg/injection, schedule: Q04DX003 (ip), vehicle: distilled water + Tween-80) is reported as 100 % of control and the T/C (dose: 1.56 mg/kg/injection, schedule: Q04DX003 (ip), vehicle: distilled water + Tween-80) is reported as 103 % of control. The T/C (dose: 3.12 mg/kg/injection, schedule: Q04DX003 (ip), vehicle: distilled water + Tween-80) was 113 % of control, the T/C (dose: 6.25 mg/kg/injection, schedule: Q04DX003 (ip), vehicle: distilled water + Tween-80) was 106 % of control and the T/C (dose: 6.25 mg/kg/injection, schedule: Q04DX003 (ip), vehicle: water) was 105 % of control. For the same compound, the T/C (dose: 12.5 mg/kg/injection, schedule: Q04DX003 (ip), vehicle: distilled water + Tween-80) was 123 % of control, the T/C (dose: 12.5 mg/kg/injection, schedule: Q04DX003 (ip), vehicle: water) was 113 % of control and the T/C (dose: 25.0 mg/kg/injection, schedule: Q04DX003 (ip), vehicle: distilled water + Tween-80) was 124 % of control. The T/C (dose: 25.0 mg/kg/injection, schedule: Q04DX003 (ip), vehicle: water) was 123 % of control and the T/C (dose: 50.0 mg/kg/injection, schedule: Q04DX003 (ip), vehicle: water) was 169 % of control.

In the case of `FC(F)(F)c1cccc(-n2nnnc2Oc2ccc(-c3ccccc3)cc2)c1`, the T/C [5] is reported as 97 % of control, the T/C [6] is reported as 101 % of control and the T/C [7] is reported as 90 % of control.

For `COc1ccc(-c2cc(-c3cc(-c4ccc(OC)cc4)on3)no2)cc1`, the T/C (dose: 60.0 mg/kg/injection, schedule: Q01DX005 (ip), vehicle: saline) was 100 % of control, the T/C (dose: 120.0 mg/kg/injection, schedule: Q01DX005 (ip), vehicle: saline) was 92 % of control and the T/C (dose: 240.0 mg/kg/injection, schedule: Q01DX005 (ip), vehicle: saline) was 97 % of control.

`Cc1nnc2nc(N)[nH]n2c1=O` was tested, and the T/C (dose: 25.0 mg/kg/injection, schedule: Q01DX005 (ip), vehicle: water) was 95 % of control, the T/C (dose: 50.0 mg/kg/injection, schedule: Q01DX005 (ip), vehicle: water) was 98 % of control and the T/C (dose: 100.0 mg/kg/injection, schedule: Q01DX005 (ip), vehicle: water) was 93 % of control.

For `CNC(=S)SCc1ccccc1`, the T/C [1] was 99 % of control and the T/C [2] was 110 % of control.

In the case of `C=C(C)C(=O)Oc1cccccc1=O`, the T/C [5] is reported as 102 % of control, the T/C [6] is reported as 106 % of control and the T/C [7] is reported as 114 % of control.
